Results on eleven molecules are retold here after patent publication US5032575A, “Method for enhancing healing of corneal endothelial wounds” (Eye Research Institute of Retina Foundation, Inc., priority 1989, dated 1991).

The test system of test [1] is cultured corneal endothelial cells. Put plainly: Pharmacological regulation of morphology and mitosis in cultured rabbit corneal endothelium (Example 2). It counts as cell-based.
Test [2] concerns rabbit corneal endothelial cells. The conditions noted are these: cited from earlier work; for cell shape in first passage cultures (rabbit): EGF and/or indomethacin.
The test system is the same in test [3]. Put plainly: Cell shape morphometry of confluent cultured rabbit corneal endothelial cells (Example 1). The settings on record: for potentiation of EGF-induced elongation: 10^-5, equimolar, in presence of EGF; for rank order of potency of cyclooxygenase inhibitors on cell shape: effect on cell shape in presence of EGF; for cell shape at confluence / mean / distribution of the major axes (Amax): cultured seven days; for cell shape at confluence: control cells polygonal; for mean / distribution of the major axes (Amax): control mean 33 μ; for ratio Per/Amax: perimeter / major axis, 3.14 for a perfectly round cell.

Test [4] deals with human corneal endothelial cells. The conditions noted are these: EGF and/or indomethacin; cited from earlier work.
Test [5] deals with cultured corneal endothelial cells. The settings on record: control cultures and cultures with EGF.
Test [6] relates to Corneal endothelial cells. The test is described as follows: f-actin labelling with rhodamine labelled phallacidin in cultured corneal endothelial cells. The settings on record: 1 week culture; control shows circumferential bands of f-actin.
Another test deals with cat corneal endothelium. The conditions noted are these: 22° C.; cited from earlier work.
Test [7] relates to most cell culture systems. The conditions noted are these: cited from earlier work.
In test [8] the test system is Corneal endothelial cells. The test is described as follows: Transmission electron microscopy of pharmacologically modulated endothelial phenotypes. The conditions noted are these: cultured cells.
For test [9], the system named is intact rabbit corneal endothelium. The test is described as follows: Endothelial wound closure in excised rabbit corneas, specular microscopy with morphometric analysis (Example 3).
Setting [10] is: EGF 10 ng/ml, indomethacin 1 μM in M-K medium.

“Also recorded” adds a separate entry of the source. Like-named read-outs stand apart in the source and are kept apart here.

As to `C=C[C@@]1(C)CC(=O)[C@]2(O)[C@@]3(C)[C@@H](O)CCC(C)(C)[C@@H]3[C@H](O)[C@H](OC(C)=O)[C@@]2(C)O1` [Forskolin], in test [1] (added with EGF and INDO), the “effect on EGF and INDO-induced elongation” value is “prevented EGF and INDO-induced elongation”; the “effect on cell density / mitosis in presence of EGF and INDO” value is listed as “inhibited endothelial mitosis”.
`CCCCC[C@H](O)/C=C/[C@H]1[C@H](O)CC(=O)[C@@H]1C/C=C\CCCC(=O)O` [PGE2, prostaglandin E2]: the “effect of exogenous PGE2 on elongation in cultures treated with EGF and indomethacin” value in test [2] (added with EGF and indomethacin) is “blocks elongation”.
Take `CCCCC[C@H](O)/C=C/[C@@H]1[C@@H](C/C=C\CCCC(=O)O)[C@@H](O)C[C@H]1O` [PGF2α]: the “effect on elongation of Amax produced by EGF and indomethacin” value in test [3] (increasing concentrations/doses added with EGF and indomethacin) is listed as “has no effect on the elongation of Amax”.
For `CCCCCCCCCCCCCC(=O)O[C@@H]1[C@@H](C)[C@@]2(O)[C@@H](C=C(CO)C[C@]3(O)C(=O)C(C)=C[C@@H]23)[C@H]2C(C)(C)[C@]12OC(C)=O` [TPA], in test [1], the “cell density / mitosis, agent alone” value is “increased cell density”; the “cell shape (elongation), agent alone” value is reported as “caused elongation”; the “synergy when TPA and EGF both present in the medium” value is given as “synergistic effects were not noted”.
In the case of `CCCCC/C=C\C/C=C\C/C=C\C/C=C\CCCC(=O)O` [arachidonic acid], in test [3] (added in the absence of EGF, in the presence or absence of indomethacin), the “effect on cell shape” value is given as “had no effect on cell shape”.
Consider `C[C@@H]1C[C@H]2[C@@H]3CCC4=CC(=O)C=C[C@]4(C)[C@@]3(F)[C@@H](O)C[C@]2(C)[C@@]1(O)C(=O)CO` [dexamethasone], for which, in [3], the “potentiation of EGF-induced elongation” value is given as “has no effect” and the “rank order of potency of cyclooxygenase inhibitors on cell shape” value is “inactivity”.
Regarding `CC(C(=O)O)c1ccc(-c2ccccc2)c(F)c1` (stereo not shown) [flurbiprofen], the “rank order of potency of cyclooxygenase inhibitors on cell shape” value in test [3] is listed as “indomethacin>suprofen>flurbiprofen”.
As to `COc1ccc2c(c1)c(CC(=O)O)c(C)n2C(=O)c1ccc(Cl)cc1` [indomethacin], in test [1] (with TPA), the “cellular elongation, INDO added to TPA containing medium” value was “marked enhancement of cellular elongation” and the “final cell density, INDO added to TPA containing medium” value is “had no effect on final cell density”. For the same molecule, in [2], the “cell shape in first passage cultures (rabbit)” value is “cause elongation” and the “PGE2 synthesis by cultures of polygonal endothelial cells” value is listed as “totally inhibited”. Moreover, the “cell shape in first passage cultures (human)” value in test [4] is listed as “cause elongation”. Besides, the “synthesis of PGE2” value in test [5] is reported as “totally inhibits”. Moreover, in [3], the “cell shape at confluence” value is reported as “elongated at confluence with a stellate shape”, the “mean / distribution of the major axes (Amax)” value is given as “increases”, the “rank order of potency of cyclooxygenase inhibitors on cell shape” value was “indomethacin>suprofen>flurbiprofen” and the “ratio Per/Amax” value is given as 2.6. Moreover, the f-actin staining pattern entry in [6] was “almost completely lacking in individual actin fibers”.
As for `CC(C(=O)O)c1ccc(C(=O)c2cccs2)cc1` (stereo not shown) [suprofen], in test [3], the “potentiation of EGF-induced elongation” value is on record as “Potentiation of EGF-induced elongation also occurs” and the “rank order of potency of cyclooxygenase inhibitors on cell shape” value was “indomethacin>suprofen>flurbiprofen”.
In the case of Cholera toxin, in test [1], the “cell shape (elongation), agent alone” value is listed as “had no effect on cell shape”; the “effect on EGF and INDO-induced elongation” value is “antagonized EGF and INDO-induced elongation”; the “effect on EGF-induced elongation” value is on record as “EGF-induced elongation did not occur”; the “effect on cell density / mitosis in presence of EGF and INDO” value was “without preventing increased cell density”. In test [1], the “effect on elongation in response to TPA” value was “did not prevent elongation in response to TPA”, the “effect on mitogenic effect of EGF” value is reported as “potentiated” and the “effect on mitogenic response to TPA” value is on record as “potentiate the mitogenic response”.
As for epidermal growth factor [EGF], the “time for association of radiolabeled EGF to be complete” value with cat corneal endothelium is listed as “approximately 120 minutes”. For the same molecule, in test [7], the “time after addition at which DNA synthesis reaches a maximum” value is “about 22 hours” and the “time after addition at which increased DNA synthesis begins” value is listed as “approximately 15 hours”. Moreover, in [2], the “cell shape in first passage cultures (rabbit)” value was “cause elongation” and the “shape change in cultured rabbit tissue (April 1986 paper)” value was “induce a shape change in the cells that is independent of mitosis”. In addition, the “cell shape in first passage cultures (human)” value in test [4] is listed as “cause elongation”. For the same molecule, in [5], the “synthesis of PGE2” value is recorded as “unaffected”. Further, the “ultrastructure by transmission electron microscopy” value in [8] was “Junctional complexes were absent”. In test [3] (compared with cells grown under control conditions), the cell density result is given as “little or no effect on cell density”. Further, in test [3], the “cell shape at confluence” value is “spindle-shaped at confluence”, the “mean / distribution of the major axes (Amax)” value is recorded as “significantly greater distribution of major axes” and the “ratio Per/Amax” value was “decreases significantly”. Also, the “average percent change of the shape factor relative to control group” value in test [9] (150 minutes after wounding) is listed as “two times greater”. Further, the “average displacement of cells near the wound boundary” value in test [9] (150 minutes after wounding, control 7 μm) is on record as ~16 μm. Also, in [9] (setting [10]), the “migration of cells near the wound boundary vs control group” value is “migrated significantly more than those in the control group; also recorded: significantly increased migration of cells near the wound boundary” and the “wound closure time vs control group” value is on record as “shortened the wound closure time”. Further, the “time after wounding at which wound area reached maximum” value in [9] (EGF 10 ng/ml, indomethacin 1 μM in M-K medium, 37° C., control 20 minutes) was 10 min. Moreover, the “time for wound area to decrease to 50% of the original size” value in test [9] (EGF 10 ng/ml, indomethacin 1 μM, control about 240 minutes) was ≤ 120 min. In addition, the “relative average percent change of the shape factor, significance vs control (FIG. 3)” value in test [9] (EGF+indomethacin at 50, 100, 150 minutes, EGF at 100 and 150 minutes) is “significantly different from the control group”. Also, in test [9] (one cornea per group, control 200 minutes), the “time of peak of the shape change” value stood at 150 min. The “wound closed to percent of the original size” value in [9] (within 250 minutes after wounding) was found to be 80%.
